Test results published in article PMC6459484, “Synthetic surfactin analogues have improved anti-PEDV properties” (PLoS ONE, 2019).
Values after ≈ are worked out from the molar mass of the structure shown. “Also recorded” adds a separate entry of the source. Square brackets hold non-standard residues; d marks the D form. Peptide text beside a SMILES is read from it. * marks the point of attachment. X1 = CCCCCCCc1ccc(-c2ccc(C(=O)*)cc2)cc1; Palmitoyl = CCCCCCCCCCCCCCCC(=O)*

Legend:
PEDV = experiment: Time of addition assay (viral N protein by western blot, viral RNA by qRT-PCR); format: cell-based, Porcine epidemic diarrhea virus; conditions: Vero cells, 1000 PFU PEDV, harvested 12 hpi, SLP5 50 μg/ml, surfactin 20 μg/ml; for PEDV replication (nucleic acid and protein levels), reagent present throughout the experiment (treatment group 2) or at any stage: DEPE 5 μg/ml, 3 independent experiments
Protocol: Time of addition assay was performed according to the procedures described, with modifications. Confluent Vero cells in 12-well plates were infected with 1000 PFU of PEDV and incubated for 1 hr at 4 °C to synchronize infection. The inoculum was removed and 1 mL of 37 °C DMEM was added to each well, cells were then placed at 37 °C in a humidified incubator. At the indicated time points, SLP5, surfactin, or dielaidoyl-phosphatidylethanolamine (DEPE, AvantiPolarLipids, Alabaster, AL) was added dropwise to cells or virus to a final concentration of 50 μg/ml, 20 μg/ml, or 5 μg/ml and incubated a further 12 hours at 37 °C. Viral nucleic acid and protein levels in the cells were measured by qRT-PCR and western-blot respectively. The data shown is representative of 3 independent experiments.
Total RNA was extracted from cells using TRIzol Reagent (Invitrogen) according to the manufacturer’s instructions. cDNA was generated by reverse transcription using HiScript TM QRT SuperMix for qPCR (Vazyme) according to the manufacturer’s instructions. PEDV nucleic acid levels were assessed by measuring the viral nucleoprotein (N) using qRT-PCR with the TaKaRa SYBR Green qPCR Kit (TaKaRa). Primer sequences were as follows: PEDV-N-F (sense), 5’-[…]-3’; PEDV-N-R (antisense), 5’-[…]-3’; C-sabaeus-GAPDH-F, 5’-[…]-3’; C-sabaeus-GAPDH-R, 5’-[…]-3’. Gene level was calculated using the comparative Ct method and normalized to the endogenous levels of GAPDH.
Boiled cell lysates were subjected to SDS-PAGE then transferred to PVDF membrane (Roche, Basel, Switzerland) using a semi-dry transfer apparatus (GE, Little Chalfont, Buckinghamshire, UK). Membranes were blocked in 5% non-fat milk in TBS containing 0.01% Tween-20 (TBST) then incubated overnight at 4 °C with anti-PEDV N-protein monoclonal antibody (Median Diagnostics, South Korea) diluted in TBST with 1% BSA. Membranes were washed 30 min in TBST followed by incubation for 1 h at RT with 1:5000 HRP goat anti-mouse IgG antibody (ABGENT, San Diego, CA, USA) then thrice washed for 15 min in TBST. Membranes were incubated with ECL reagent (Thermo, Waltham, MA, USA) and imaged using a ChemiDoc™ system (Bio-Rad, Hercules, CA, USA).
Since SLP5 was the most promising surfactin analogue, we chose it for further study. Time of addition assays were performed to determine whether the SLP5 exerts its anti-PEDV effect at the same stage during infection as surfactin. Since surfactin acts directly on virions, the experiment was designed to examine events early in the infection process. Fig 6A summarizes the experimental plan and the eight treatments tested. Briefly, SLP5, surfactin, or DEPE was added to virus alone, cells alone, or to cells and virus together prior to infection, during virus adsorption, during virus invasion (1 h post infection at 37 °C), or during replication (1–12 hpi). Samples were harvested 12 hours after infection, and analyzed to measure cellular levels of viral protein (Fig 6B and 6C) and viral RNA (Fig 6D). […] Other antiviral mechanisms of SLP5 and surfactin cannot be ruled out since PEDV replication is inhibited to different degrees in some of the other treatment groups.
Fig 6 Time-of-addition experiments. (A) Vero cells were treated with SLP5, surfactin, or DEPE at different time points before, during, and after infection. […] (B) The PEDV nucleoprotein was detected by Western-blot, and (C) quantitated by band intensity relative to the internal control, GAPDH. (D) The PEDV genome was detected by qRT-PCR. […]

[1] = Critical micelle concentration by surface tension (ring method); format: physicochemical; conditions: samples stood 30 min at 22 °C, intersection of two linear regression lines
Protocol: Surface tensions were measured using the ring method. Samples were freshly prepared in a testing flask and allowed to stand for 30 minutes at 22 °C. Surface tension measurements were made using a surface tensiometer (HLD-LST-II, HENLIDA Co., Ltd, China). Linear regressions of the drop and the flat area were performed separately for the surface tension-concentration curve. The concentration at the intersection of the two lines is the critical micelle concentration (CMC).
The CMC was calculated by measuring the surface tension of each SLP over a range of concentrations. […] Linear regressions were performed independently using the data on the descending part of the curve below the CMC and the equilibrium part above the CMC. The intersection of the linear regression lines corresponds to the CMC (Table 3).
Fig 4 Critical micelle concentrations of the SLPs. CMCs were determined for SDS, surfactin, and SLPs by surface tension. The intersection of the two linear regression lines corresponds to the CMC value, (shown by the dotted lines).

PEDV CV777 = experiment: Plaque reduction assay (anti-PEDV activity); format: cell-based, Porcine epidemic diarrhea virus; conditions: for Antiviral potency relative to SLP3: anti-PEDV plaque reduction, compared with SLP3; for Anti-PEDV potency compared with surfactin: plaque reduction assay, result in words
Protocol: Cercopithecus aethiops kidney epithelial cells (Vero, ATCC, CCL-81) were cultured in high glucose DMEM (Gibco, US), supplemented with 10% fetal bovine serum (FBS, GIBCO), at 37 °C in a 5% CO2 humidified atmosphere. Cells were routinely seeded at a density of 2×10^5 /mL in plastic tissue culture flasks (25 cm^2 flasks, Corning, USA) and passaged every 3–4 days. PEDV CV777 was provided by the Jiangsu Academy of Agricultural Sciences (JAAS).
Vero cells were seeded at 2 × 10^5 cells/well in 24-well tissue culture plates and incubated 18–24 h at 37 °C until approximately 95% confluency was reached. 100 PFU of PEDV mixed with an equal volume of SLP in DMEM or DMEM alone were incubated 10 minutes at 37 °C, then added into the wells of the Vero cells and incubated 30 minutes at 4 °C. Cells were washed 3 times with DMEM then overlaid with DMEM/1% agar and incubated 72 hours at 37 °C. The cells were fixed with 4% formaldehyde, then stained with 0.1% crystal violet after the agar overlay was removed. The data are representative of 3 biological replicates and each plaque assay was performed in triplicate and values are expressed as means ± the standard deviation. Curve fitting and EC50 were calculated with GraphPad Prism 6 using the log[inhibitor] vs. response equation.
The SLPs were tested for anti-PEDV activity using a plaque reduction assay. Serial dilutions of SLPs were incubated with an equal volume of PEDV then aliquoted onto precooled cells in 12-well plates. After the virus has adsorbed to the cells at 4 °C, SLPs were washed away. The adsorbed virus particles were then counted by plaque forming assays (Fig 2A). The results were fitted to a sigmoid-curve and plotted Fig 2B. All SLPs have potent anti-PEDV effects above 50 μg/ml, but differences in their anti-PEDV effect.
Fig 2 Anti-PEDV activities of lipopeptides. (A) PEDV was incubated with series concentrations of SLPs for 10 minutes at 37 °C. After washing cells of unadsorbed virus, the remaining infectious particles was detected by plaque assay. (B) Anti-PEDV activity (% remaining PFU) plotted as a function of lipopeptide concentration. The results of three independent experiments are shown as means ± standard deviation. 100% represents plaque counts in the control (no lipopeptide) sample.

porcine RBCs = format: cell-based; conditions: for CC50 (50% cytotoxicity concentration, hemolysis): red cells of porcine, 1 h
Protocol: Hemolytic activity was measured according to the methods described in Jingdan, with some modifications. Briefly, serial dilutions of SLPs were added to 200 uL of a 1% suspension of porcine RBCs in PBS, followed by incubation for 1 h at 37 °C. Cells were centrifuged at 1000 g for 10 min, then 100 uL of each supernatant was transferred to wells of a 96-well plate. The optical density at 540 nm was measured using a microplate reader (Infinite 200 PRO, Tecan Group Ltd., Switzerland) and % hemolysis was calculated using the formula: Hemolysis(%)=ODS-ODB/ODP-ODB×100% where ODS, ODB, and ODP represent the optical density of the SLP-treated samples, negative control and positive control, respectively. 1% Triton X-100 was used for the positive control. Each sample was run in triplicate.
Fig 3 Hemolytic activity of lipopeptides. (A) The indicated concentration of SLPs were added to a 1% porcine RBC suspension in PBS, followed by incubation for 1 h at 37 °C and centrifugation. Pictures were taken after collecting a portion of the supernatant for quantification of hemolysis. (B) Hemolytic curve. Hemolysis (measured at OD540) is shown as a function of SLP concentration. 100% represents the OD obtained using 0.1% Triton X-100-treated red blood cells.

[2] = 100 PFU PEDV pre-incubated with lipopeptide 10 min at 37 °C, adsorbed to Vero cells 30 min at 4 °C, washed, agar overlay 72 h, 3 biological replicates each in triplicate, mean ± SD, log[inhibitor] vs. response fit

Row | Structure (SMILES) | PEDV replication (nucleic acid and protein levels), reagent present throughout the experiment (treatment group 2) or at any stage (PEDV) | CMC [1] [µg/mL] | EC50 (PEDV CV777; 72 h) [µg/mL] | Antiviral potency relative to SLP3 (PEDV CV777) | Anti-PEDV potency compared with surfactin (PEDV CV777) | CC50 (50% cytotoxicity concentration, hemolysis) (porcine RBCs) [µg/mL] | PEDV replication, treatment group 5 (PEDV; same as group 2 (little replication)) | Hemolytic activity, result in words (porcine RBCs) | EC50 (PEDV CV777; [2]) [µg/mL]
1 | CCCCCCCC/C=C/CCCCCCCC(=O)OC[C@H](COP(=O)(O)OCCN)OC(=O)CCCCCCC/C=C/CCCCCCCC [DEPE, dielaidoyl-phosphatidylethanolamine] | did not affect PEDV replication at any stage | – | – | – | – | – | – | – | –
2 | CCCCCCCCCCCCOS(=O)(=O)[O-].[Na+] [SDS, reference compound] | – | 296 | – | – | – | – | – | – | –
3 | CCCCCCCCCCCCCCCC(=O)N[C@@H](CCC(=O)O)C(=O)N[C@H](C(=O)N[C@H](CC(C)C)C(=O)N[C@H](CC(C)C)C(N)=O)C(C)C [SLP4] (Palmitoyl-EV[dL][dL]-NH2) | – | 10.6 | 5.4 ± 0.4 (≈ 7.61 µM) | about 3 fold | higher potency than surfactin | 12.9 ± 0.2 (≈ 18.2 µM) | – | – | –
4 | CCCCCCCCCCCCCCCC(=O)N[C@@H](CCC(=O)O)C(=O)N[C@H](C(=O)N[C@H](CC(C)C)C(=O)N[C@@H](CC(=O)O)C(=O)N[C@H](CC(C)C)C(=O)O)C(C)C [SLP5] (Palmitoyl-EV[dL]D[dL]-OH) | little PEDV replication occurs | 15.0 | 16.5 ± 0.6 (≈ 20 µM) | – | equaled | 847.2 ± 124.9 (≈ 1030 µM) | act directly on the virus | – | –
5 | CCCCCCCCCCCCCCCC(=O)N[C@@H](CCCCN)C(=O)N[C@H](C(=O)N[C@H](CC(C)C)C(=O)N[C@@H](CCCCN)C(=O)N[C@H](CC(C)C)C(N)=O)C(C)C [SLP6] (Palmitoyl-KV[dL]K[dL]-NH2) | – | 22.4 | 6.1 ± 0.3 (≈ 7.29 µM) | – | higher potency than surfactin | 12.6 ± 0.4 (≈ 15 µM) | – | strongest hemolytic activity | –
6 | CCCCCCCCCCCCCCCC(=O)N[C@@H](CCC(=O)O)C(=O)N[C@H](C(=O)N[C@@H](CC(C)C)C(=O)N[C@@H](CC(=O)O)C(=O)N[C@@H](CC(C)C)C(N)=O)C(C)C [SLP7] (Palmitoyl-EVLDL-NH2) | – | 17.1 | – | – | – | 274.1 ± 21.0 (≈ 332 µM) | – | – | 14.0 ± 0.6 (≈ 17 µM)
7 | CCCCCCCCCCCCCCCC(=O)N[C@@H](CCC(=O)O)C(=O)N[C@H](C(=O)N[C@H](CC(C)C)C(=O)N[C@H](CC(C)C)C(=O)N[C@@H](CC(=O)O)C(N)=O)C(C)C [SLP8] (Palmitoyl-EV[dL][dL]D-NH2) | – | 20.2 | 2.6 ± 0.2 (≈ 3.15 µM) | 6.5 fold | higher potency than surfactin; also recorded: exceeded | 217.5 ± 18.9 (≈ 264 µM) | – | low hemolytic activity | –
8 | CCCCCCCCCCCCCCCC(=O)N[C@@H](CCC(=O)O)C(=O)N[C@@H](CC(=O)O)C(=O)N[C@H](C(=O)N[C@H](CC(C)C)C(=O)N[C@H](CC(C)C)C(N)=O)C(C)C [SLP9] (Palmitoyl-EDV[dL][dL]-NH2) | – | 9.4 | – | – | – | 52.2 ± 2.0 (≈ 63.3 µM) | – | – | 12.8 ± 0.5 (≈ 15.5 µM)
9 | CCCCCCCc1ccc(-c2ccc(C(=O)N[C@@H](CCC(=O)O)C(=O)N[C@H](C(=O)N[C@H](CC(C)C)C(=O)N[C@@H](CC(=O)O)C(=O)N[C@H](CC(C)C)C(N)=O)C(C)C)cc2)cc1 [SLP10] (X1-EV[dL]D[dL]-NH2) | – | – | – | – | – | 82.8 ± 3.4 (≈ 95.7 µM) | – | – | 10.6 ± 0.5 (≈ 12.3 µM)
